Structures are written as SMILES. Where only a bound is given, the exact number is not on record here.

Full length human recombinant HDAC11, sequence (Q96DB2 whole entry): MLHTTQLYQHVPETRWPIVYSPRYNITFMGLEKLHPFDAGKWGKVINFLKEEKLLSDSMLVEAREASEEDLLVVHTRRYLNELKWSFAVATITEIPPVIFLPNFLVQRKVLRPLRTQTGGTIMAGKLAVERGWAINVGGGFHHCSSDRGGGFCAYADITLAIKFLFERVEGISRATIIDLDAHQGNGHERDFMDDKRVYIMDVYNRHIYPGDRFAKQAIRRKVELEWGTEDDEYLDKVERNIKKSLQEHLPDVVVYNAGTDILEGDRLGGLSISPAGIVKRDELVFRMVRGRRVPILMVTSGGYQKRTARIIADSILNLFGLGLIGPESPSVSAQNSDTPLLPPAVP

The assay deals with Full length human recombinant HDAC11 (Homo sapiens (Human), UniProt Q96DB2). Put plainly: Enzymatic HDAC11 assay, electrophoretic mobility shift. Type of assay: biochemical. The settings on record: substrate FAM-RHKK(tri-fluor-Ac)-NH2, read-out: HDAC11 IC50 Range. The protocol:
The enzymatic HDAC11 assay was performed using electrophoretic mobility shift assay. Full length human recombinant HDAC11 protein was expressed in baculoviral system and purified by affinity chromatography. The enzymatic reactions were assembled in 384 well plates in a total volume of 25 μL in a reaction buffer composing: 100 mM HEPES, pH 7.5, 25 mM KCl, 0.1% bovine serum albumin, 0.01% Triton X-100, 1% DMSO (from compounds) 2 μM of the fluorescently labeled peptide substrate and enzyme. The enzyme was added at a final concentration of 10 nM. The peptide substrate FAM-RHKK(tri-fluor-Ac)-NH2 was used. The compounds were tested at 12 concentrations spaced by 3× dilution intervals. Negative control samples (0%-inhibition in the absence of inhibitor) and positive control samples (100%-inhibition) were assembled in replicates of four in each assay plate. The reactions were incubated at 25° C. and quenched by the addition of 45 μL of termination buffer (100 mM HEPES, pH 7.5, 0.01% Triton X-100, 0.05% SDS).
The terminated assay plates were analyzed on LabChip® 3000 microfluidic electrophoresis instrument (Perkin Elmer/Caliper Life Sciences). The fluorescence intensity of the electrophoretically separated de-acetylated product and substrate peptide was measured. Activity in each sample was determined as the product to sum ratio (PSR):P/(S+P), where P is the peak height of the product peptide and S is the peak height of the substrate peptide. Percent inhibition (Pinh) is determined using the following equation: Pinh=(PSR0%−PSRinh)/(PSR0%−PSR100%)*100,
where PSRinh is the product sum ratio in the presence of inhibitor, PSR0% is the average product sum ration in the absence of inhibitor and PSR100% is the average product sum ratio in 100%-inhibition control samples. The IC50 values of inhibitors were determined by fitting the percent inhibition curves with 4 parameter dose-response model using XLfit 4 software.
In general terms: In EMSA bound probe runs differently from free probe, usually more slowly.
A word on the IC50: it is the concentration that inhibits the measured activity by half. With `O=C(NO)c1cccc2c1CCC1(CCN(c3ccc(F)cc3)CC1)O2` [II-93, 1′-(4-fluorophenyl)-N-hydroxyspiro[chromane-2,4′-piperidine]-5-carboxamide], the IC50 was greater than 1000 nM. For `O=C(NO)c1cccc2c1CC1(CCN(Cc3ccc(C(F)(F)F)c(F)c3)C1=O)C2` (stereo not drawn) [II-5, 1′-(3-fluoro-4-(trifluoromethyl)benzyl)-N-hydroxy-2′-oxo-1,3-dihydrospiro[indene-2,3′-pyrrolidine]-4-carboxamide] the value was less than 500 nM.

On to `O=C(NO)c1cccc2c1CC1(CCN(Cc3ccccc3OC(F)(F)F)C1=O)C2` (stereo not drawn) [II-32, N-hydroxy-2′-oxo-1′-(2-(trifluoromethoxy)benzyl)-1,3-dihydrospiro[indene-2,3′-pyrrolidine]-4-carboxamide], for which the half-inhibitory concentration (IC50) fell in the range of 500 to 1000 nM.

With `O=C(NO)c1cccc2c1OC1(CC2)CCN(C(=O)C2(c3cccc(C(F)(F)F)c3)CC2)CC1` [II-78, N-hydroxy-1′-(1-(3-(trifluoromethyl)phenyl)cyclopropane-1-carbonyl)spiro[chromane-2,4′-piperidine]-8-carboxamide], the 50% inhibitory concentration (IC50) was less than 500 nM. For `O=C(NO)c1cccc2c1CC1(CCN(Cc3ccc(-c4ccccc4)cc3)C1=O)C2` (stereo not drawn) [II-16, 1′-([1,1′-biphenyl]-4-ylmethyl)-N-hydroxy-2′-oxo-1,3-dihydrospiro[indene-2,3′-pyrrolidine]-4-carboxamide], the half-inhibitory concentration (IC50) was less than 500 nM. For `O=C(NO)c1cccc2c1OC1(CC2)CCN(C(=O)c2ccc(F)cc2)CC1` [II-75, 1′-(4-fluorobenzoyl)-N-hydroxyspiro[chromane-2,4′-piperidine]-8-carboxamide] the value was greater than 1000 nM.

Regarding `O=C(NO)c1cccc2c1CC1(CC2)CCN(c2cccc(C(F)(F)F)c2)C1=O` (stereo not drawn) [II-72, N-hydroxy-2′-oxo-1′-(3-(trifluoromethyl)phenyl)-3,4-dihydro-1H-spiro[naphthalene-2,3′-pyrrolidine]-8-carboxamide], the IC50 is greater than 1000 nM. Under `O=C(NO)c1cccc2c1CC1(CCN(Cc3ccccc3C(F)(F)F)C1=O)C2` (stereo not drawn) [II-29, N-hydroxy-2′-oxo-1′-(2-(trifluoromethyl)benzyl)-1,3-dihydrospiro[indene-2,3′-pyrrolidine]-4-carboxamide] stands 500 to 1000 nM; under `CC(=O)N1CCC2(CC1)Cc1cccc(C(=O)NO)c1C2` [II-60, 1′-acetyl-N-hydroxy-1,3-dihydrospiro[indene-2,4′-piperidine]-4-carboxamide], greater than 1000 nM. On to `Cc1ccc(N2CCC3(CCc4cccc(C(=O)NO)c4O3)CC2)cc1F` [II-83, 1′-(3-fluoro-4-methylphenyl)-N-hydroxyspiro[chromane-2,4′-piperidine]-8-carboxamide], for which the half-inhibitory concentration (IC50) was greater than 1000 nM. Under `O=C(NO)c1cccc2c1CCC1(CCN(c3cccc(C(F)(F)F)c3)C1=O)C2` (stereo not drawn) [II-89, N-hydroxy-2′-oxo-1′-(3-(trifluoromethyl)phenyl)-3,4-dihydro-1H-spiro[naphthalene-2,3′-pyrrolidine]-5-carboxamide] stands 500 to 1000 nM; under `O=C(NO)c1cccc2c1CC1(CCN(Cc3cccc(Cl)c3)C1=O)C2` (stereo not drawn) [II-30, 1′-(3-chlorobenzyl)-N-hydroxy-2′-oxo-1,3-dihydrospiro[indene-2,3′-pyrrolidine]-4-carboxamide], less than 500 nM; under `O=C(NO)c1cccc2c1CC1(CCN(C3CC3)C1)C2` (stereo not drawn) [II-57, 1′-cyclopropyl-N-hydroxy-1,3-dihydrospiro[indene-2,3′-pyrrolidine]-4-carboxamide], greater than 1000 nM. For `O=C(NO)c1cccc2c1CC1(CC2)CCN(c2ccccc2C(F)(F)F)C1=O` (stereo not drawn) [II-73, N-hydroxy-2′-oxo-1′-(2-(trifluoromethyl)phenyl)-3,4-dihydro-1H-spiro[naphthalene-2,3′-pyrrolidine]-8-carboxamide] the value was greater than 1000 nM; for `CN1CCC2(Cc3cccc(C(=O)NO)c3C2)C1=O` (stereo not drawn) [II-2, N-hydroxy-1′-methyl-2′-oxo-1,3-dihydrospiro[indene-2,3′-pyrrolidine]-4-carboxamide], greater than 1000 nM; for `O=C(NO)c1cccc2c1OC1(CC2)CCN(c2ccc(C(F)(F)F)cn2)CC1` [II-82, N-hydroxy-1′-(5-(trifluoromethyl)pyridin-2-yl)spiro[chromane-2,4′-piperidine]-8-carboxamide], greater than 1000 nM.

In the case of `O=C(NO)c1cccc2c1CC1(CCN(Cc3ccc(OCc4ccccc4)cc3)C1=O)C2` (stereo not drawn) [II-41, 1′-(4-(benzyloxy)benzyl)-N-hydroxy-2′-oxo-1,3-dihydrospiro[indene-2,3′-pyrrolidine]-4-carboxamide], the 50% inhibitory concentration (IC50) was less than 500 nM.

`O=C(NO)c1cccc2c1CC1(CCN(Cc3csc(-c4ccccc4)n3)C1=O)C2` (stereo not drawn) [II-34, N-hydroxy-2′-oxo-1′-((2-phenylthiazol-4-yl)methyl)-1,3-dihydrospiro[indene-2,3′-pyrrolidine]-4-carboxamide]: the half-maximal inhibitory concentration (IC50) was greater than 1000 nM. Under `O=C(NO)c1cccc2c1OC1(CC2)CCN(C2CCCCC2)CC1` [II-81, 1′-cyclohexyl-N-hydroxyspiro[chromane-2,4′-piperidine]-8-carboxamide] stands greater than 1000 nM; under `Cc1cccc(CN2CCC3(Cc4cccc(C(=O)NO)c4C3)C2=O)c1` (stereo not drawn) [II-17, N-hydroxy-1′-(3-methylbenzyl)-2′-oxo-1,3-dihydrospiro[indene-2,3′-pyrrolidine]-4-carboxamide], 500 to 1000 nM. Under `COc1ccccc1CN1CCC2(Cc3cccc(C(=O)NO)c3C2)C1=O` (stereo not drawn) [II-36, N-hydroxy-1′-(2-methoxybenzyl)-2′-oxo-1,3-dihydrospiro[indene-2,3′-pyrrolidine]-4-carboxamide] stands greater than 1000 nM; under `O=C(NO)c1cccc2c1CCC1(CCN(Cc3ccc(C(F)(F)F)c(F)c3)C1=O)C2` (stereo not drawn) [II-86, 1′-(3-fluoro-4-(trifluoromethyl)benzyl)-N-hydroxy-2′-oxo-3,4-dihydro-1H-spiro[naphthalene-2,3′-pyrrolidine]-5-carboxamide], less than 500 nM. On to `O=C(NO)c1cccc2c1CC1(CCN(Cc3ccccc3-c3ccccc3)C1=O)C2` (stereo not drawn) [II-37, 1′-([1,1′-biphenyl]-2-ylmethyl)-N-hydroxy-2′-oxo-1,3-dihydrospiro[indene-2,3′-pyrrolidine]-4-carboxamide], for which the IC50 is less than 500 nM.

Consider `O=C(NO)c1cccc2c1CC1(CCN(Cc3cccc(Cl)c3Cl)C1=O)C2` (stereo not drawn) [II-22, 1′-(2,3-dichlorobenzyl)-N-hydroxy-2′-oxo-1,3-dihydrospiro[indene-2,3′-pyrrolidine]-4-carboxamide], for which the 50% inhibitory concentration (IC50) was less than 500 nM.

`O=C(NO)c1cccc2c1CCC1(CCN(Cc3ccc(C(F)(F)F)cc3)C1=O)C2` (stereo not drawn) [II-85, N-hydroxy-2′-oxo-1′-(4-(trifluoromethyl)benzyl)-3,4-dihydro-1H-spiro[naphthalene-2,3′-pyrrolidine]-5-carboxamide]: the IC50 was less than 500 nM. Under `O=C(NO)c1cccc2c1CC1(CCN(Cc3ccccc3)CC1)C2=O` [II-65, 1′-benzyl-N-hydroxy-1-oxo-1,3-dihydrospiro[indene-2,4′-piperidine]-4-carboxamide] stands greater than 1000 nM. Turning to `O=C(NO)c1cccc2c1CC1(CCN(Cc3ccc(Cl)c(Cl)c3)C1=O)C2` (stereo not drawn) [II-38, 1′-(3,4-dichlorobenzyl)-N-hydroxy-2′-oxo-1,3-dihydrospiro[indene-2,3′-pyrrolidine]-4-carboxamide], the IC50 was less than 500 nM.

Consider `Cc1ccccc1CN1CCC2(Cc3cccc(C(=O)NO)c3C2)C1=O` (stereo not drawn) [II-23, N-hydroxy-1′-(2-methylbenzyl)-2′-oxo-1,3-dihydrospiro[indene-2,3′-pyrrolidine]-4-carboxamide], for which the IC50 is greater than 1000 nM. Under `O=C(NO)c1cccc2c1CC1(CCN(Cc3cccc(C(F)(F)F)n3)C1=O)C2` (stereo not drawn) [II-51, N-hydroxy-2′-oxo-1′-((6-(trifluoromethyl)pyridin-2-yl)methyl)-1,3-dihydrospiro[indene-2,3′-pyrrolidine]-4-carboxamide] stands greater than 1000 nM; under `O=C(NO)c1cccc2c1CC1(CCN(Cc3ccc(Cl)cc3)C1=O)C2` (stereo not drawn) [II-1, 1′-(4-chlorobenzyl)-N-hydroxy-2′-oxo-1,3-dihydrospiro[indene-2,3′-pyrrolidine]-4-carboxamide], less than 500 nM.
